Measurements published in US6638956B2, “Pesticidal 1-arylpyrazoles” (Rhone-Poulenc, Inc., priority 1996, dated 2003).
Where “and” joins values, the source holds several entries; their conditions need not be identical. Equal values may be shown once.

Row | melting point | Compound
1 | 107 to 111 °C | N=C(NO)c1nn(-c2c(Cl)cc(C(F)(F)F)cc2Cl)c(N)c1S(=O)(=O)CCF [Compound 52, 5-Amino-1-[2,6-dichloro-4-(trifluoromethyl)phenyl]-N-hydroxy-4-(2-fluoroethylsulfonyl)-1H-pyrazole-3-carboximidamide]
2 | 139 to 142 °C | CN=C(NOC)c1nn(-c2c(Cl)cc(C(F)(F)F)cc2Cl)c(N)c1[S+](C)[O-] (stereo not drawn) [Compound 50, 5-Amino-1-[2,6-dichloro-4-(trifluoromethyl)phenyl]-N-methoxy-N′-methyl-4-methylsulfinyl-1H-pyrazole-3-carboximidamide]
3 | 175 to 176 °C | C[S+]([O-])c1c(C(=N)NO)nn(-c2c(Cl)cc(C(F)(F)F)cc2Cl)c1NCCC#N (stereo not drawn) [Compound 58, 5-[2-(Cyano)ethylamino]-1-[2,6-dichloro-4-(trifluoromethyl)phenyl]-N-hydroxy-4-methylsulfinyl-1H-pyrazole-3-carboximidamide]
4 | 191 to 192 °C | CNc1c([S+](C)[O-])c(C(=N)NO)nn1-c1c(Cl)cc(C(F)(F)F)cc1Cl (stereo not drawn) [Compound 55, 1-[2,6-Dichloro-4-(trifluoromethyl)phenyl]-N-hydroxy-5-methylamino-4-methylsulfinyl-1H-pyrazole-3-carboximidamide]
5 | 210 °C | C[S+]([O-])c1c(C(=N)NN)nn(-c2c(Cl)cc(C(F)(F)F)cc2Cl)c1N (stereo not drawn) [Compound 69, 5-Amino-1-[2,6-dichloro-4-(trifluoromethyl)phenyl]-4-methylsulfinyl-N-amino-1H-pyrazole-3-carboximidamide]
6 | 207 to 208 °C | CSc1c(C(=N)NO)nn(-c2c(Cl)cc(C(F)(F)F)cc2Cl)c1N [Compound 47, 5-Amino-1-[2,6-dichloro-4-(trifluoromethyl)phenyl]-N-hydroxy-4-methylthio-1H-pyrazole-3-carboximidamide]
7 | 131 to 134 °C | C[S+]([O-])c1c(C(=N)NO)nn(-c2c(Cl)cc(C(F)(F)F)cc2Cl)c1NCCS(=O)(=O)c1ccccc1 (stereo not drawn) [Compound 60, 1-[2,6-Dichloro-4-(trifluoromethyl)phenyl]-4-methylsulfinyl-5-[2-(phenylsulfonyl)ethylamino]-N-hydroxy-1H-pyrazole-3-carboximidamide]
8 | 238 to 239 °C | C[S+]([O-])c1c(C(=N)NO)nn(-c2ccc(C(F)(F)F)cc2Cl)c1N (stereo not drawn) [Compound 68, 5-Amino-1-[2-chloro-4-(trifluoromethyl)phenyl]-4-methylsulfinyl-N-hydroxy-1H-pyrazole-3-carboximidamide]
9 | 213 to 214 °C | CCNC1(c2c(Cl)cc(C(F)(F)F)cc2Br)NNC(C(=N)NO)=C1[S+](C)[O-] (stereo not drawn) [Compound 62, 5-[2-Bromo-6-chloro-4-(trifluoromethyl)phenyl]-5-ethylamino-4-methylsulfinyl-N-hydroxy-1H-pyrazole-3-carboximidamide]
10 | 234 to 235 °C | C[S+]([O-])c1c(C(=N)NO)nn(-c2ncc(C(F)(F)F)cc2Cl)c1N (stereo not drawn) [Compound 54, 5-Amino-1-[3-chloro-5-(trifluoromethyl)-2-pyridinyl]-4-methylsulfinyl-N-hydroxy-1H-pyrazole-3-carboximidamide]
11 | 240 to 241 °C | C[S+]([O-])C1=C(N)N(c2c(Br)cc(C(F)(F)F)cc2Br)N(O)C1C(=N)N (stereo not drawn) [Compound 61, 5-Amino-1-[2,6-dibromo-4-(trifluoromethyl)phenyl]-4-methylsulfinyl-2-N-hydroxy-1H-pyrazole-3-carboximidamide]
12 | 118 °C | CC(C)C(=O)NNC(=N)c1nn(-c2c(Cl)cc(C(F)(F)F)cc2Cl)c(N)c1[S+](C)[O-] (stereo not drawn) [Compound 70, 5-Amino-1-[2,6-dichloro-4-(trifluoromethyl)phenyl]-4-methylsulfinyl-N-(isopropylcarbonyl)amino-1H-pyrazole-3-carboximidamide]

The next lines start with the compound.

Row | Compound | melting point
13 | CNc1c([S+](C)[O-])c(C=NO)nn1-c1c(Cl)cc(C(F)(F)F)cc1Cl (stereo not drawn) [Compound 3, 1-[2,6-Dichloro-4-(trifluoromethyl)phenyl]-5-methylamino-4-methylsulfinyl-1H-pyrazole-3-carboxaldehyde oxime] | 162 °C
14 | CON=Cc1nn(-c2c(Cl)cc(C(F)(F)F)cc2Cl)c(N)c1[S+](C)[O-] (stereo not drawn) [Compound 17, 5-Amino-1-[2,6-dichloro-4-(trifluoromethyl)phenyl]-4-methylsulfinyl-1H-pyrazole-3-carboxaldehyde O-(methyl)oxime] | 80 °C
15 | CC[S+]([O-])c1c(C=NO)nn(-c2c(Cl)cc(C(F)(F)F)cc2Cl)c1C (stereo not drawn) [Compound 34, 1-[2,6-Dichloro-4-(trifluoromethyl)phenyl]-4-ethylsulfinyl-5-methyl-1H-pyrazole-3-carboxaldehyde oxime] | 210 to 213 °C
16 | C[S+]([O-])c1cn(-c2c(Cl)cc(C(F)(F)F)cc2Cl)nc1C=NO (stereo not drawn) [Compound 20, 1-[2,6-Dichloro-4-(trifluoromethyl)phenyl]-4-methylsulfinyl-1H-pyrazole-3-carboxaldehyde oxime] | 239 to 240 °C
17 | CSc1c(C=NO)nn(-c2c(Cl)cc(C(F)(F)F)cc2Cl)c1N(C)C [Compound 36, 1-[2,6-Dichloro-4-(trifluoromethyl)phenyl]-5-dimethylamino-4-methylthio-1H-pyrazole-3-carboxaldehyde oxime] | 178 to 181 °C
18 | N=C(NO)c1nn(-c2c(Cl)cc(C(F)(F)F)cc2Cl)c(C=O)c1SC(F)(F)F [Compound 22, 1-[2,6-Dichloro-4-(trifluoromethyl)phenyl]-5-formyl-N-hydroxy-4-trifluoromethylthio-1H-pyrazole-3-carboximidamide] | 72 to 75 °C
19 | Nc1c(SC(F)F)c(C=NO)nn1-c1c(Cl)cc(C(F)(F)F)cc1Cl [Compound 7, 5-Amino-1-[2,6-dichloro-4-(trifluoromethyl)phenyl]-4-difluoromethylthio-1H-pyrazole-3-carboxaldehyde oxime] | 146 to 152 °C
20 | CSc1c(C=NO)nn(-c2c(Cl)cc(C(F)(F)F)cc2Cl)c1N [Compound 8, 5-Amino-1-[2,6-dichloro-4-(trifluoromethyl)phenyl]-4-methylthio-1H-pyrazole-3-carboxaldehyde oxime] | 179 to 181 °C
21 | CC(C)ON=Cc1nn(-c2c(Cl)cc(C(F)(F)F)cc2Cl)c(N)c1[S+](C)[O-] (stereo not drawn) [Compound 24, 5-Amino-1-[2,6-dichloro-4-(trifluoromethyl)phenyl]-4-methylsulfinyl-1H-pyrazole-3-carboxaldehyde O-(isopropyl)oxime] | 128 to 130 °C
22 | Nc1c(SC(F)(F)F)c(C=NO)nn1-c1c(Cl)cc(C(F)(F)F)cc1Cl [Compound 6, 5-Amino-1-[2,6-dichloro-4-(trifluoromethyl)phenyl]-4-trifluoromethylthio-1H-pyrazole-3-carboxaldehyde oxime] | 163 to 169 °C
23 | CC[S+]([O-])c1c(C(=N)NO)nn(-c2c(Cl)cc(C(F)(F)F)cc2Cl)c1N (stereo not drawn) [Compound 42, 5-Amino-1-[2,6-dichloro-4-(trifluoromethyl)phenyl]-N-hydroxy-4-ethylsulfinyl-1H-pyrazole-3-carboximidamide] | 186 to 189 °C
24 | C[S+]([O-])c1c(C(=N)NO)nn(-c2c(Cl)cc(C(F)(F)F)cc2Cl)c1N (stereo not drawn) [Compound 44, 5-Amino-1-[2,6-dichloro-4-(trifluoromethyl)phenyl]-N-hydroxy-4-methylsulfinyl-1H-pyrazole-3-carboximidamide] | 225 to 227 °C and 225 to 226 °C
25 | C[S+]([O-])c1c(C=NO[Si](C)(C)C(C)(C)C)nn(-c2c(Cl)cc(C(F)(F)F)cc2Cl)c1N (stereo not drawn) | 150 to 154 °C
26 | CCOC(=O)C(C)C(=O)ON=Cc1nn(-c2c(Cl)cc(C(F)(F)F)cc2Cl)c(N)c1[S+](C)[O-] (stereo not drawn) [Compound 13, 5-Amino-1-[2,6-dichloro-4-(trifluoromethyl)phenyl]-4-methylsulfinyl-1H-pyrazole-3-carboxaldehyde O-[2-(ethoxycarbonyl)propionyl]oxime] | 52 to 54 °C
27 | Cc1c([S+](C)[O-])c(C=NO)nn1-c1c(Cl)cc(C(F)(F)F)cc1Cl (stereo not drawn) [Compound 30, 1-[2,6-Dichloro-4-(trifluoromethyl)phenyl]-5-methyl-4-methylsulfinyl-1H-pyrazole-3-carboxaldehyde oxime] | 210 to 214 °C
28 | CS(=O)(=O)c1c(C(=N)NO)nn(-c2c(Cl)cc(C(F)(F)F)cc2Cl)c1N [Compound 46, 5-Amino-1-[2,6-dichloro-4-(trifluoromethyl)phenyl]-N-hydroxy-4-methylsulfonyl-1H-pyrazole-3-carboximidamide] | 109 to 111 °C
29 | C[S+]([O-])c1c(C=NO)nn(-c2c(Cl)cc(C(F)(F)F)cc2Cl)c1N (stereo not drawn) [Compound 1, 5-Amino-1-[2,6-dichloro-4-(trifluoromethyl)phenyl]-4-methylsulfinyl-1H-pyrazole-3-carboxaldehyde oxime] | 219 to 221 °C (dec.)
30 | CC(=O)ON=Cc1nn(-c2c(Cl)cc(C(F)(F)F)cc2Cl)c(N)c1[S+](C)[O-] (stereo not drawn) [Compound 10, 5-Amino-1-[2,6-dichloro-4-(trifluoromethyl)phenyl]-4-methylsulfinyl-1H-pyrazole-3-carboxaldehyde O-(acetyl)oxime] | 130 to 134 °C
31 | C[S+]([O-])c1c(C=NO)nn(-c2ncc(C(F)(F)F)cc2Cl)c1N (stereo not drawn) [Compound 32, 5-Amino-1-[3-chloro-5-(trifluoromethyl)-2-pyridinyl]-4-methylsulfinyl-1H-pyrazole-3-carboxaldehyde oxime] | 195.5 to 196.5 °C
32 | Cc1ccccc1C(=O)ON=Cc1nn(-c2c(Cl)cc(C(F)(F)F)cc2Cl)c(N)c1[S+](C)[O-] (stereo not drawn) [Compound 11, 5-Amino-1-[2,6-dichloro-4-(trifluoromethyl)phenyl]-4-methylsulfinyl-1H-pyrazole-3-carboxaldehyde O-(2-methylbenzoyl)oxime] | 107 to 110 °C
33 | CC[S+]([O-])c1c(C=NO)nn(-c2c(Cl)cc(C(F)(F)F)cc2Cl)c1N (stereo not drawn) [Compound 5, 5-Amino-1-[2,6-dichloro-4-(trifluoromethyl)phenyl]-4-ethylsulfinyl-1H-pyrazole-3-carboxaldehyde oxime] | 195 °C
